From patent US20230159510A1, “NOVEL PRMT5 INHIBITORS” (AMGEN INC., priority 2020, published 2023) come the findings set out here.

The subject of one experiment is HCT116 WT cells. The experiment is described as follows: HCT116 proliferation assay, WT cells (CellTiter-Glo, 6 days). The settings on record: Homo sapiens, HCT-116, 144 h, read-out: Prolif_HCT116-WT IC50. In kind it is cell-based. In a few lines: (§1)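 Cells grown in RPMI 1640 + 10% FBS, plated overnight, then exposed for 6 days to 8- or 9-point 1:3 compound dilutions (top 1 or 10 µM) with DMSO control. Viability read by CellTiter-Glo luminescence.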
Background: ATP-based viability assays read luminescence as a measure of living cells.

A further experiment has as its target PRMT5/MEP50 (Homo sapiens, UniProt O14744). Kind of experiment: MTase-Glo methyl transferase assay, Method A (Histone H4 peptide, 1 µM MTA, 24 h pre-incubation). In kind it is biochemical. Further details: made in house. The settings on record: read-out: PRMT5 MTase Glo Ki (nM, Meth. A). In a few lines:
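PRMT5/MEP50 (10 nM) pre-incubated 24 h with compound, 5 µM SAM and 1 µM MTA, then reaction started with 1 µM Histone H4 (1-21) peptide and run 2 h at room temperature in Tris pH 8.0 buffer. SAH formed detected by MTase-Glo luminescence; IC50 and KI from dose-response curves.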

Another experiment concerns HCT116 MTAP null cells. Kind of experiment: HCT116 proliferation assay, MTAP null cells (CellTiter-Glo, 6 days). The class given is cell-based. The settings on record: HCT116-MTAP null, 144 h, read-out: Protif_ HCT116-MTAP null IC50. Summed up: as §1

The structures appear in SMILES notation.

The term IC50 denotes the concentration at which inhibition is half-maximal. As a reminder, the Ki is the equilibrium dissociation constant of an inhibitor or competing ligand from its target.

Sequence of PRMT5/MEP50 (O14744 whole entry): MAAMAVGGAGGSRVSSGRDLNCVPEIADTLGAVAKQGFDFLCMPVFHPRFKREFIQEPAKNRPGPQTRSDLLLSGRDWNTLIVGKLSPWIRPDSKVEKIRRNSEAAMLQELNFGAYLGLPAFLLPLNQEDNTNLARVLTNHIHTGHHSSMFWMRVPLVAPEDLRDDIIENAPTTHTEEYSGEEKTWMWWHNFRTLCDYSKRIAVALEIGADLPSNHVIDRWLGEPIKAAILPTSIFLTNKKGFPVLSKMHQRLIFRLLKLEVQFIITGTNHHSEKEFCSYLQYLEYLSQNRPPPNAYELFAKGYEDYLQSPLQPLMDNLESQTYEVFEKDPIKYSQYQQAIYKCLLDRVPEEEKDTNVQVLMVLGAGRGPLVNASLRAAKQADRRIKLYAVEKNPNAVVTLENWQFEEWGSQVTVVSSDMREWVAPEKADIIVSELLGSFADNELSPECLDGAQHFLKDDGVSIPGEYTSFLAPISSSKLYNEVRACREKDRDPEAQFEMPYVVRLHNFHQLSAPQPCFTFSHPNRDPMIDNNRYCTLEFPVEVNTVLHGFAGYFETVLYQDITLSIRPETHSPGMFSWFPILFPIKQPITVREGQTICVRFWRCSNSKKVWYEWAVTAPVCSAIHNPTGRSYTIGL
Sequence of PRMT5/MEP50 (Q9BQA1 whole entry partner): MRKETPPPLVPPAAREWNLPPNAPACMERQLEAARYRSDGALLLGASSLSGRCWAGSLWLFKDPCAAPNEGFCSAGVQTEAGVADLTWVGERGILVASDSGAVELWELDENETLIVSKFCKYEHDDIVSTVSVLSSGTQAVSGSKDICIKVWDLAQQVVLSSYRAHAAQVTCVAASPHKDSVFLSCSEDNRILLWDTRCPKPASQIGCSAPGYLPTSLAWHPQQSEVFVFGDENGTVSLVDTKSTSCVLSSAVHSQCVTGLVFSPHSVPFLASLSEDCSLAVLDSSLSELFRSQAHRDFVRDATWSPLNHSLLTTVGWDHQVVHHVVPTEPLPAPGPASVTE

In the case of `C[C@H](c1ncccc1F)N(Cc1ccc(C#N)cn1)C(=O)c1ccc2nc(N)c(Cl)cc2c1` [Example 351, 2-amino-3-chloro-N-((5-cyano-2-pyridinyl)methyl)-N-((1R)-1-(3-fluoro-2-pyridinyl)ethyl)-6-quinolinecarboxamide], the values for the concentration for half-maximal inhibition (IC50) with HCT116 WT cells and in the experiment on HCT116 MTAP null cells were above 10000 nM and 824 nM, respectively. Further, on PRMT5/MEP50, the Ki amounted to 1.29 nM.
For `Cc1cc2cc(C(=O)N(Cc3ccc(C#N)cn3)[C@H](C)c3ccccc3F)ccc2nc1N` [Example 405, 2-amino-N-((5-cyano-2-pyridinyl)methyl)-N-((1R)-1-(2-fluorophenyl)ethyl)-3-methyl-6-quinolinecarboxamide] the same measures were 1040 nM, 54 nM and 0.03 nM.
The corresponding values for `C[C@H](c1ncccn1)N(Cc1ccc(C(F)(F)F)nn1)C(=O)c1ccc2nc(N)c(Cl)cc2c1` (single isomer, unassigned) [Example 445] are above 10000 nM, 549 nM and 0.53 nM.
The corresponding values for `Cc1cc2cc(C(=O)N(Cc3ccc(C4CC4)cn3)CC(C)C)ccc2nc1N` [Example 546, 2-amino-N-((5-cyclopropyl-2-pyridinyl)methyl)-3-methyl-N-(2-methylpropyl)-6-quinolinecarboxamide] are 4390 nM, 262 nM and 1.09 nM.
Take `N#Cc1ccc(CN(C(=O)c2cnc3nc(N)c(Br)cc3c2)[C@@H](c2ncccn2)C2CC2)nc1` [Example 425, (R)-7-amino-6-bromo-N-((5-cyanopyridin-2-yl)methyl)-N-(cyclopropyl(pyrimidin-2-yl)methyl)-1,8-naphthyridine-3-carboxamide]: the half-inhibitory concentration (IC50) in the experiment with HCT116 WT cells was found to be 2170 nM; in the experiment with HCT116 MTAP null cells, 380 nM. Also, the inhibitory constant (Ki) at PRMT5/MEP50 was 0.68 nM.
As for `C[C@H](c1ncccn1)N(Cc1ccc(C2=CCOCC2)nn1)C(=O)c1ccc2nc(N)c(Cl)cc2c1` [Example 334, 2-amino-3-chloro-N-((6-(3,6-dihydro-2H-pyran-4-yl)-3-pyridazinyl)methyl)-N-((1R)-1-(2-pyrimidinyl)ethyl)-6-quinolinecarboxamide], the IC50 in the experiment on HCT116 WT cells is above 10000 nM; in the experiment with HCT116 MTAP null cells, 434 nM. Moreover, on PRMT5/MEP50, the inhibition constant Ki was 0.34 nM.
For `Cc1cc2cc(C(=O)N(Cc3ccc(C(F)(F)F)cn3)[C@H](C)c3ncccc3F)cnc2nc1N` [Example 389, 7-amino-N-((1R)-1-(3-fluoro-2-pyridinyl)ethyl)-6-methyl-N-((5-(trifluoromethyl)-2-pyridinyl)methyl)-1,8-naphthyridine-3-carboxamide] the same measures were above 10000 nM, 198 nM and 0.37 nM.
As to `CCOc1ccc(CN(C(=O)c2ccc3nc(N)c(C)cc3c2)[C@H](C)c2ncccn2)nc1` [Example 375, 2-amino-N-((5-ethoxy-2-pyridinyl)methyl)-3-methyl-N-((1R)-1-(2-pyrimidinyl)ethyl)-6-quinolinecarboxamide], the IC50 in the experiment with HCT116 WT cells came to 2130 nM; with HCT116 MTAP null cells, 64 nM. For the same compound, the Ki on PRMT5/MEP50 came out at 0.87 nM.
For `C#Cc1cc2cc(C(=O)N(Cc3ccc(C(F)(F)F)cn3)[C@H](C)c3ncccc3F)cnc2nc1N` [Example 543, (R)-7-amino-6-ethynyl-N-(1-(3-fluoropyridin-2-yl)ethyl)-N-((5-(trifluoromethyl)pyridin-2-yl)methyl)-1,8-naphthyridine-3-carboxamide] the same measures were above 10000 nM, 568 nM and 0.59 nM.
The corresponding values for `C[C@H](c1ncccc1F)N(Cc1ccc(C#N)cn1)C(=O)c1cnc2nc(N)c(Br)cc2c1` [Example 354, 7-amino-6-bromo-N-((5-cyano-2-pyridinyl)methyl)-N-((1R)-1-(3-fluoro-2-pyridinyl)ethyl)-1,8-naphthyridine-3-carboxamide] are above 10000 nM, 378 nM and 0.29 nM.
For the compound `Cc1cc2cc(C(=O)N(Cc3ccc(C#N)cn3)[C@H](C)c3ncccn3)ncc2nc1N` [Example 418, 2-amino-N-((5-cyano-2-pyridinyl)methyl)-3-methyl-N-((1R)-1-(2-pyrimidinyl)ethyl)-1,7-naphthyridine-6-carboxamide], the IC50 in the experiment with HCT116 WT cells is above 10000 nM; in the experiment on HCT116 MTAP null cells, 500 nM. Also, at PRMT5/MEP50, the inhibition constant Ki was 0.27 nM.
For the compound `Cc1cc([C@@H](C)N(Cc2ccc(C(F)(F)F)cn2)C(=O)c2ccc3nc(N)c(C)cc3c2)no1` [Example 392, 2-amino-3-methyl-N-((1R)-1-(5-methyl-1,2-oxazol-3-yl)ethyl)-N-((5-(trifluoromethyl)-2-pyridinyl)methyl)-6-quinolinecarboxamide], the IC50 worked out at 6860 nM in the experiment with HCT116 WT cells and 193 nM in the experiment with HCT116 MTAP null cells. The inhibition constant Ki at PRMT5/MEP50 came to 0.5 nM.
The corresponding values for `Cc1cc2cc(C(=O)N(Cc3ccc(C(F)(F)F)nc3)[C@H](C)c3ncccn3)ccc2nc1N` (single isomer, unassigned) [Example 477] are 5640 nM, 195 nM and 0.11 nM.
For `COC[C@@H](C)N(Cc1ccc(C(F)(F)F)cn1)C(=O)c1ccc2nc(N)c(C)cc2c1` [Example 507, 2-amino-N-((2R)-1-methoxy-2-propanyl)-3-methyl-N-((5-(trifluoromethyl)-2-pyridinyl)methyl)-6-quinolinecarboxamide] the same measures were 913 nM, 46 nM and 0.15 nM.
For `Cc1cc2cc(C(=O)N(Cc3ccc(C(F)(F)F)cn3)Cc3ncc(F)cn3)ccc2nc1N` [Example 341, 2-amino-N-((5-fluoro-2-pyrimidinyl)methyl)-3-methyl-N-((5-(trifluoromethyl)-2-pyridinyl)methyl)-6-quinolinecarboxamide] the same measures were above 10000 nM, 437 nM and 0.52 nM.
With `C[C@H](c1ncccn1)N(Cc1ccc(C(F)(F)F)cn1)C(=O)c1ccc2nc(N)c(Br)cc2c1` [Example 434, 2-amino-3-bromo-N-((1R)-1-(2-pyrimidinyl)ethyl)-N-((5-(trifluoromethyl)-2-pyridinyl)methyl)-6-quinolinecarboxamide], the IC50 stood at 2420 nM with HCT116 WT cells and 49 nM in the experiment with HCT116 MTAP null cells. Further, the Ki at PRMT5/MEP50 is below 0.1 nM.
Turning to `Cc1cc2cc(C(=O)N(Cc3ccc(S(=O)(=O)C4CC4)cn3)[C@H](C)c3ncccc3F)ccc2nc1N` [Example 540, (R)-2-amino-N-((5-(cyclopropylsulfonyl)pyridin-2-yl)methyl)-N-(1-(3-fluoropyridin-2-yl)ethyl)-3-methylquinoline-6-carboxamide], the figures for the half-inhibitory concentration (IC50) in the experiment with HCT116 WT cells and with HCT116 MTAP null cells were 6270 nM and 194 nM, respectively. Also, the Ki on PRMT5/MEP50 amounted to 0.17 nM.
The corresponding values for `Cc1cc2cc(C(=O)N(Cc3ccc(C(F)(F)F)cc3)Cc3ncccc3F)ccc2nc1N` [Example 328, 2-amino-N-((3-fluoro-2-pyridinyl)methyl)-3-methyl-N-(4-(trifluoromethyl)benzyl)-6-quinolinecarboxamide] are 4640 nM, 178 nM and 0.41 nM.
The corresponding values for `Cc1cc2cc(C(=O)N(Cc3ccc(Cl)cn3)Cc3ncccn3)ccc2nc1N` [Example 340, 2-amino-N-((5-chloro-2-pyridinyl)methyl)-3-methyl-N-(2-pyrimidinylmethyl)-6-quinolinecarboxamide] are above 10000 nM, 505 nM and 1.39 nM.
On to `Cc1cc2cc(C(=O)N(Cc3ccc(C4CCOCC4)cn3)[C@H](C)c3ncccn3)ccc2nc1N` [Example 559, 2-amino-3-methyl-N-((1R)-1-(2-pyrimidinyl)ethyl)-N-((5-(tetrahydro-2H-pyran-4-yl)-2-pyridinyl)methyl)-6-quinolinecarboxamide], for which the IC50 worked out at 2190 nM with HCT116 WT cells and 147 nM in the experiment with HCT116 MTAP null cells. Besides, the inhibition constant (Ki) on PRMT5/MEP50 was determined as 0.07 nM.
Take `Cc1cc2cc(C(=O)N(Cc3ccncn3)Cc3ccc(C(F)(F)F)cn3)ccc2nc1N` [Example 335, 2-amino-3-methyl-N-(4-pyrimidinylmethyl)-N-((5-(trifluoromethyl)-2-pyridinyl)methyl)-6-quinolinecarboxamide]: the half-maximal inhibitory concentration (IC50) is above 10000 nM in the experiment on HCT116 WT cells and 727 nM with HCT116 MTAP null cells. Moreover, at PRMT5/MEP50, the Ki stood at 0.73 nM.
The corresponding values for `Cc1cc2nc(N)c(C)cc2cc1C(=O)N(Cc1ccc(C(F)(F)F)cn1)CC(C)C` [Example 539, 2-amino-N-isobutyl-3,7-dimethyl-N-((5-(trifluoromethyl)pyridin-2-yl)methyl)quinoline-6-carboxamide] are 7010 nM, 328 nM and 0.12 nM.
Regarding `C[C@H](c1ncccn1)N(Cc1ccc(C(F)(F)F)nn1)C(=O)c1cnc2nc(N)c(Br)cc2c1` (single isomer, unassigned) [Example 444], the half-maximal inhibitory concentration (IC50) in the experiment with HCT116 WT cells is above 10000 nM; with HCT116 MTAP null cells it was 327 nM. For the same compound, at PRMT5/MEP50, the Ki worked out at 0.15 nM.
For `Cc1cc2cc(C(=O)N(Cc3ccc(C(F)F)cn3)CC(C)C)ccc2nc1N` [Example 324, 2-amino-N-((5-(difluoromethyl)-2-pyridinyl)methyl)-3-methyl-N-(2-methylpropyl)-6-quinolinecarboxamide] the same measures were above 10000 nM, 849 nM and 2 nM.
The corresponding values for `CC(C)CN(Cc1ccc(C(F)(F)F)cn1)C(=O)c1ccc2nc(N)c(Br)cc2c1` [Example 318, 2-amino-3-bromo-N-(2-methylpropyl)-N-((5-(trifluoromethyl)-2-pyridinyl)methyl)-6-quinolinecarboxamide] are above 10000 nM, 952 nM and 1.91 nM.
